15 compounds from PubChem BioAssay (NCI) can be followed below.

Among the test systems are HT29 colon; IGROV1 ovarian; MALME-3M melanoma; OVCAR-3 ovarian; SF-268 CNS; TK-10 renal; U251 CNS; UACC-257 melanoma; NCI-H522 lung.
Holding throughout (test): inhibition of tumour cell growth, NCI panel, 48 h

The structures appear in SMILES notation.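 48-hour exposure; five concentrations; linearly interpolated endpoints. The concentration for full growth arrest is given as TGI.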

Take `CCc1cccc(C(C)C)c1C1C(=O)C(=O)N(c2nc3ccccc3s2)C(=O)C1=O`: the TGI with HT29 colon, in the experiment with IGROV1 ovarian, in the experiment on MALME-3M melanoma, in the experiment with OVCAR-3 ovarian, with SF-268 CNS and in the experiment on TK-10 renal was more than 100 µM in each case. Also, the TGI in the experiment with U251 CNS and with UACC-257 melanoma was more than 100 µM throughout.

With `S=C(N/N=C/c1ccccc1)NC1CC(c2ccccc2)Oc2ccccc21` (configuration not stated), the TGI is more than 100 µM in the experiment on HT29 colon; more than 100 µM in the experiment with IGROV1 ovarian; more than 100 µM in the experiment on MALME-3M melanoma; more than 100 µM in the experiment on NCI-H522 lung; 28.7 µM in the experiment on OVCAR-3 ovarian; more than 100 µM in the experiment with SF-268 CNS. Moreover, in the experiment on U251 CNS, the TGI was more than 100 µM.

`COc1ccc(C2Oc3cc(OC)c(O)cc3[C@@H]2C)cc1` (some centres not stated): the TGI with HT29 colon was more than 100 µM; with MALME-3M melanoma, more than 100 µM; with NCI-H522 lung it was 38 µM; in the experiment on OVCAR-3 ovarian, more than 100 µM; with SF-268 CNS, more than 100 µM; with TK-10 renal it was more than 100 µM. Besides, the TGI with U251 CNS and in the experiment on UACC-257 melanoma was more than 100 µM each time.

Consider `Nc1n[nH]c(=O)c2c1c(Br)cn2C1OC(CO)C(O)C1O` (configuration not stated), for which the TGI in the experiment with HT29 colon is more than 100 µM; in the experiment with IGROV1 ovarian it was more than 100 µM; in the experiment on MALME-3M melanoma it was 54.7 µM; in the experiment on NCI-H522 lung, 25.2 µM; with OVCAR-3 ovarian, more than 50.8 µM; in the experiment with SF-268 CNS, 55.4 µM. For the same compound, the TGI with TK-10 renal is more than 100 µM; with U251 CNS, more than 54.6 µM; in the experiment on UACC-257 melanoma, more than 77.9 µM.

In the case of `CC(=O)/C=C\C(=O)NNS(=O)(=O)c1ccc(C)cc1`, the TGI with HT29 colon, with IGROV1 ovarian, in the experiment with MALME-3M melanoma, in the experiment with NCI-H522 lung, in the experiment on OVCAR-3 ovarian and in the experiment with SF-268 CNS was more than 100 µM each time. The TGI in the experiment on TK-10 renal, in the experiment with U251 CNS and with UACC-257 melanoma was more than 100 µM each time.

Take `CC(=O)OC12CCCCC1C1(CCCC1)NC2=O` (configuration not stated): the TGI in the experiment with HT29 colon, in the experiment with IGROV1 ovarian, in the experiment on MALME-3M melanoma, with OVCAR-3 ovarian, in the experiment on SF-268 CNS and in the experiment with TK-10 renal was more than 100 µM each time. For the same compound, the TGI in the experiment on U251 CNS and in the experiment on UACC-257 melanoma was more than 100 µM each time.

Take `CC(C)(O)C1CC(=O)C(C)(C2C(O)CC3(C)C4CC=C5C(CCC(O)C5(C)C)C4(C)C(=O)CC23C)O1` (configuration not stated): the TGI in the experiment with HT29 colon, in the experiment on IGROV1 ovarian, with NCI-H522 lung, in the experiment on OVCAR-3 ovarian, in the experiment with SF-268 CNS and in the experiment on TK-10 renal was more than 100 µM throughout. Also, the TGI in the experiment with U251 CNS and in the experiment on UACC-257 melanoma was more than 100 µM in each case.

On to `CC/C(=C(\c1ccccc1)c1ccc(OCC[N+](C)(C)C)cc1)c1ccccc1`, for which the TGI in the experiment with HT29 colon amounted to 29.6 µM; with IGROV1 ovarian it was 27.8 µM; with MALME-3M melanoma, 28.6 µM; in the experiment on NCI-H522 lung, 18.7 µM; in the experiment with OVCAR-3 ovarian, 20.3 µM; in the experiment on SF-268 CNS it was 32.4 µM. For the same compound, the TGI with U251 CNS was 29.2 µM; in the experiment on UACC-257 melanoma, 24.4 µM.

Consider `O=C1[C@@H]2C3C=CC([C@H]4C(=O)N(CO)C(=O)[C@@H]34)[C@@H]2C(=O)N1CO`, for which the TGI with HT29 colon was more than 100 µM; in the experiment with IGROV1 ovarian, more than 100 µM; with MALME-3M melanoma, more than 100 µM; in the experiment on NCI-H522 lung, more than 56.5 µM; in the experiment on OVCAR-3 ovarian, more than 100 µM; in the experiment with SF-268 CNS it was more than 77.7 µM. In addition, the TGI in the experiment on TK-10 renal, in the experiment on U251 CNS and in the experiment with UACC-257 melanoma was more than 100 µM in each case.

In the case of `COC(=O)c1c(OC(=O)c2ccccc2)noc1CC(=O)OC1C=CCCC1` (configuration not stated), the TGI in the experiment with IGROV1 ovarian, with MALME-3M melanoma, with NCI-H522 lung, in the experiment with OVCAR-3 ovarian, with SF-268 CNS and in the experiment on TK-10 renal was more than 100 µM each time. Further, the TGI with U251 CNS and in the experiment on UACC-257 melanoma was more than 100 µM throughout.

With `C[N+](C)(C)CC(=O)N/N=C(\C(=O)Nc1ccc(Cl)cc1)C1C(=O)N(c2ccccc2)N=C1N` (configuration not stated), the TGI in the experiment with HT29 colon, in the experiment on IGROV1 ovarian, in the experiment on MALME-3M melanoma, in the experiment with NCI-H522 lung, in the experiment with OVCAR-3 ovarian and with SF-268 CNS was more than 100 µM throughout. For the same compound, the TGI with TK-10 renal, with U251 CNS and in the experiment with UACC-257 melanoma was more than 100 µM each time.

Turning to `COc1ccccc1C1C(Cl)C(=O)N1NC(=O)Cc1ccccc1` (configuration not stated), the TGI in the experiment with HT29 colon, with IGROV1 ovarian, in the experiment on MALME-3M melanoma, in the experiment on NCI-H522 lung, in the experiment with OVCAR-3 ovarian and in the experiment on SF-268 CNS was more than 100 µM throughout. Besides, the TGI in the experiment on TK-10 renal, with U251 CNS and in the experiment on UACC-257 melanoma was more than 100 µM throughout.

Consider `O=[N+]([O-])c1ccc(-c2ccc(C3=Nn4c(nnc4-c4ccc(Cl)cc4)SC3)o2)cc1`, for which the TGI is more than 100 µM with HT29 colon; more than 100 µM in the experiment with IGROV1 ovarian; more than 91.6 µM with MALME-3M melanoma; more than 100 µM with NCI-H522 lung; more than 100 µM in the experiment on OVCAR-3 ovarian; more than 100 µM in the experiment with SF-268 CNS. Moreover, the figures for the TGI in the experiment on TK-10 renal, in the experiment with U251 CNS and with UACC-257 melanoma were 53.4 µM, more than 70.7 µM and more than 100 µM, respectively.

In the case of `CCN(CC)CC(C(=O)Nc1c(C)cccc1C)/C(C)=N/NC(N)=S` (configuration not stated), the TGI in the experiment with HT29 colon, in the experiment with IGROV1 ovarian, in the experiment with MALME-3M melanoma, with NCI-H522 lung, with OVCAR-3 ovarian and with SF-268 CNS was more than 100 µM throughout. Moreover, the TGI in the experiment on TK-10 renal, with U251 CNS and with UACC-257 melanoma was more than 100 µM in each case.

Turning to `CCOc1ccccc1Nc1nc(C)c(C(=O)CC(=O)C(=O)Nc2ccccc2)s1`, the TGI in the experiment with HT29 colon is more than 100 µM; with IGROV1 ovarian it was more than 100 µM; with MALME-3M melanoma, more than 100 µM; in the experiment with NCI-H522 lung, 84.8 µM; in the experiment on OVCAR-3 ovarian it was 63.3 µM; in the experiment on SF-268 CNS, more than 100 µM. The TGI in the experiment with TK-10 renal, in the experiment with U251 CNS and in the experiment with UACC-257 melanoma was more than 100 µM in each case.
